In patent US20250127840A1, “METHOD FOR ACTIVATING DENDRITIC CELLS AND METHOD FOR ACTIVATING NATURAL KILLER CELLS, HELPER T CELLS, KILLER T CELLS, B CELLS, OR MACROPHAGES” (TOYO SHINYAKU CO., LTD., priority 2023, published 2025):

Tests used:
[1] = tested on: NK cells; assay: Test 3 NK cell cytotoxicity of spleen cells against calcein-stained YAC-1 target cells; assay type: cell-based, mouse; conditions: test substance 1 μg/mL, 18 hours, then YAC-1 target cells 4 hours, control set to 1
Experimental: After dissection of a C57BL/6J mouse (8 weeks old), spleen cells were isolated, and a cell suspension prepared by dilution in a 10% fetal bovine serum-RPMI 1640 medium was seeded at 100 µL/well so that the cells were seeded at 5×10^6 cells/well in a 96-well plate. To the seeded cells, a medium (0.5% DMSO-10% fetal bovine serum-RPMI 1640 medium) prepared to have a total concentration of test substances of 1 μg/mL (for young barley leaf juice powder, the concentration of young barley leaf juice ingredient excluding dextrin was 1 μg/mL) was added at 100 μL/well, and the resultant was cultured for 18 hours in a 5% CO2 incubator (“CO2 Incubator” manufactured by ASTEC) at 37° C.
After culture, the plate was centrifuged (at 1,000 rpm for 10 minutes) using a centrifuge. 150 μL of the supernatant was removed, and 150 μL of 1% BSA-RPMI 1640 was added. This process was repeated once more. After that, YAC-1 cells (stained with calcein) sensitive to NK cells were added as target cells, and the resultant was cultured for 4 hours.
After culture, the plate was centrifuged (at 1,000 rpm for 10 minutes) using a centrifuge, and the supernatant was collected in a 96-well black plate. The collected supernatant was measured for fluorescence intensity (at an excitation wavelength of 490 nm and a fluorescence wavelength of 515 nm) using a microplate reader (“SpectraMax i3x” manufactured by Molecular Devices), and the NK cell cytotoxicity was evaluated.
The NK cell cytotoxicity (relative value) is shown in Table 5 with the value of the control set to 1. A higher relative value of NK cell cytotoxicity indicates greater activation of NK cells. […] Even if dietary fiber (cellulose), Vitamin D, or Spirulina, which are known to have immune-stimulating effects, was added, the NK cells were not activated.

[2] = tested on: bone marrow-derived dendritic cells (including both cDCs and pDCs); assay: Test 1 (A) TNF-α gene expression in bone marrow-derived dendritic cells (real-time PCR); assay type: cell-based, mouse; conditions: test substance 10 μg/mL, 72 hours; TNF-α/β-actin, control with no test substance set to 1
Experimental: After dissection of a C57BL/6J mouse (8 weeks old), bone marrow mononuclear cells were sampled from the femur and tibia, and cultured using a differentiation induction medium (RPMI 1640 medium containing 10% fetal bovine serum, 100 μM of 2-mercaptoethanol, and 100 ng/ml of Flt3 ligand). […] After the medium was removed from each well, 100 μL of a differentiation induction medium containing 0.5% DMSO, which was prepared so that a total concentration of the test substances was 10 μg/mL (for young barley leaf juice powder, the concentration of young barley leaf juice ingredient excluding dextrin was 10 μg/mL), was added to each well and cultured for 72 hours. After that, the medium was removed from each well, and RNA was collected using the RNeasy Mini Kit (manufactured by QIAGEN). From the obtained RNA, a gene expression level (mRNA expression level) of TNF-α was measured by the real-time PCR method using the One Step TB Green® PrimeScript™ RT-PCR Kit II <Perfect Real Time> (manufactured by TaKaRa). For a primer, Mm_Il12B_1_SG QuantiTect Primer Assay and Mm_Tnf1_SG QuantiTect Primer Assay (manufactured by QIAGEN) were used.

Compound: C=C1CC[C@H](O)C/C1=C/C=C1\CCC[C@]2(C)[C@@H]([C@H](C)CCCC(C)C)CC[C@@H]12 [compound 2, Vitamin D3]
- NK cell cytotoxicity (relative value) [1]: not activated
- NK cell cytotoxicity (relative value) ([1]; listed as Comparative Example 5): 0.93

Compound: β-glucan [compound 3]
- NK cell cytotoxicity (relative value) [1]: 1.04
- TNF-α gene expression level (relative value) [2]: 1.17

Compound: Cellulose [compound 1]
- NK cell cytotoxicity (relative value) [1]: not activated
- NK cell cytotoxicity (relative value) ([1]; listed as Comparative Example 4): 1.05
